In patent US20020137929A1, “1 - (3-heterocyclylphenyl) isothiourea, -isourea, -guanidine and -amidine herbicidal agents” (Intellectual Property Department, BASF Aktiengesellschaft, priority 1998, published 2002):

Legend:
ABUTH (Velvetleaf) [1] = experiment: Preemergence herbicidal evaluation; assay type: in vivo, Abutilon theophrasti; details: preemergence, rated 4-5 weeks after treatment, 0-9 scale
Method in brief: (§1)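 Seeds were planted in potting soil in cups, then sprayed preemergence with the test compound in aqueous acetone at about 0.0156 to 0.500 kg per hectare. Cups were kept under greenhouse conditions and visually rated 4–5 weeks after treatment on a 0–9 scale against an untreated control.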

CASOB (Sicklepod) = experiment: Preemergence herbicidal evaluation; assay type: in vivo, Cassia obtusifolia; details: preemergence, rated 4-5 weeks after treatment, 0-9 scale
Method in brief: as §1

[2] = test system: TRZAWR (Wheat, Winter, cv Riband); experiment: Postemergence herbicidal evaluation; assay type: in vivo, Triticum aestivum; details: postemergence
Method in brief: (§2)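 Each compound, dispersed in an acetone/water mix (50/50) carrying 0.5% TWEEN 20, is nozzle-sprayed at 40 psi on approximately two-week-old seedlings at about 0.0156–0.500 kg/ha. Plants are assessed 4–5 weeks afterward on a 0–9 scale relative to control; duplicate tests are averaged.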

[3] = test system: SAGPY (Arrowhead (Pygmaea)); experiment: Preemergence weed control under flooded paddy conditions; assay type: in vivo, Sagittaria pygmaea; details: rated 3-4 weeks after treatment
Method in brief: (§3)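 Using flooded silt loam (water 1.5 to 3 cm deep), seeds sown in the top 0.5 cm were exposed preemergence to compound pipetted into the flood at about 0.0313 to 0.500 kg/ha. Effects were scored 0-9 by eye three to four weeks later.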

CYPIR (Rice Flatsedge) = experiment: Postemergence weed control under flooded paddy conditions; assay type: in vivo, Cyperus iria; details: postemergence weeds, rated 3 to 4 weeks after treatment
Method in brief: (§4)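 Containers holding 3–5 cm weeds and rice at 1.5–2.5 leaves are flooded to 1.5–3 cm above soil. Compound in 50/50 v/v aqueous/acetone is then added directly to the water, about 0.0313–0.500 kg/ha. Plants are kept in the greenhouse and rated 0–9 visually at 3–4 weeks.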

ABUTH (Velvetleaf) [4] = experiment: Postemergence herbicidal evaluation; assay type: in vivo, Abutilon theophrasti; details: postemergence
Method in brief: as §2

[5] = test system: GLXMAW (Soybean, Williams); experiment: Postemergence herbicidal evaluation; assay type: in vivo, Glycine max, (L.) Merr. cv Williams; details: postemergence
Method in brief: as §2

ORYSAT (Rice, Tebonnet) = experiment: Postemergence herbicidal evaluation; assay type: in vivo, Oryza sativa, (L.) Tebonnet; details: postemergence
Method in brief: as §2

[6] = test system: SAGPY (Arrowhead (Pygmaea)); experiment: Postemergence weed control under flooded paddy conditions; assay type: in vivo, Sagittaria pygmaea; details: postemergence weeds, rated 3 to 4 weeks after treatment
Method in brief: as §4

ECHCG (Barnyardgrass) = experiment: Postemergence herbicidal evaluation; assay type: in vivo, Echinochloa crus-galli; details: postemergence
Method in brief: as §2

AMBEL (Ragweed, Common) = experiment: Postemergence herbicidal evaluation; assay type: in vivo, Ambrosia artemisifolia; details: postemergence
Method in brief: as §2

SETVI (Foxtail, Green) [7] = experiment: Postemergence herbicidal evaluation; assay type: in vivo, Setaria viridis; details: postemergence
Method in brief: as §2

MOOVA (Monochoria) = experiment: Preemergence weed control under flooded paddy conditions; assay type: in vivo, Monochoria vaginalis; details: rated 3-4 weeks after treatment
Method in brief: as §3

SETVI (Foxtail, Green) [8] = experiment: Preemergence herbicidal evaluation; assay type: in vivo, Setaria viridis; details: preemergence, rated 4-5 weeks after treatment, 0-9 scale
Method in brief: as §1

Question: Which ABUTH rating (ABUTH (Velvetleaf) [1]; 0.1250 kg/ha) does the source give for CCOC(=O)CN1C(=O)C(CC(=O)OC(C)C(=O)OCC)S/C1=N/c1cc(-n2c(=O)cc(C(F)(F)F)n(C)c2=O)c(F)cc1Cl (stereo not shown) [Compound 87] here?
Answer: 3.0

Question: And the ABUTH rating (ABUTH (Velvetleaf) [1]; 0.2500 kg/ha)?
Answer: 9.0

Question: What about the ABUTH rating (ABUTH (Velvetleaf) [1]; 0.5000 kg/ha) of the same compound?
Answer: 9.0

Question: And the CASOB rating (CASOB (Sicklepod); 0.1250 kg/ha)?
Answer: 0.0

Question: What about the CASOB rating (CASOB (Sicklepod); 0.2500 kg/ha) of the same compound?
Answer: 0.0

Question: And the CASOB rating (CASOB (Sicklepod); 0.5000 kg/ha)?
Answer: 2.0

Question: What about the TRZAWR herbicidal rating ([2]; rate 0.0156 kg/ha) of the same compound?
Answer: 2.5

Question: What about the TRZAWR herbicidal rating ([2]; rate 0.0313 kg/ha) of the same compound?
Answer: 3.0

Question: What about the TRZAWR herbicidal rating ([2]; rate 0.0625 kg/ha) of the same compound?
Answer: 4.5

Question: And the TRZAWR herbicidal rating ([2]; rate 0.1250 kg/ha)?
Answer: 4.5

Question: And the TRZAWR herbicidal rating ([2]; rate 0.2500 kg/ha)?
Answer: 6.0

Question: What about the “SAGPY herbicidal effect rating” value ([3]; 0.0313 kg/ha) of the same compound?
Answer: 0.0

Question: What about the “SAGPY herbicidal effect rating” value ([3]; 0.0625 kg/ha) of the same compound?
Answer: 4.0

Question: And the “SAGPY herbicidal effect rating” value ([3]; 0.1250 kg/ha)?
Answer: 4.0

Question: What about the “SAGPY herbicidal effect rating” value ([3]; 0.2500 kg/ha) of the same compound?
Answer: 5.0

Question: And the “SAGPY herbicidal effect rating” value ([3]; 0.5000 kg/ha)?
Answer: 7.0

Question: And the “Herbicidal rating CYPIR” value (CYPIR (Rice Flatsedge); Rate 0.0313 kg/ha)?
Answer: 5.0

Question: What about the “Herbicidal rating CYPIR” value (CYPIR (Rice Flatsedge); Rate 0.0625 kg/ha) of the same compound?
Answer: 5.0

Question: What about the “Herbicidal rating CYPIR” value (CYPIR (Rice Flatsedge); Rate 0.1250 kg/ha) of the same compound?
Answer: 5.0

Question: And the “Herbicidal rating CYPIR” value (CYPIR (Rice Flatsedge); Rate 0.2500 kg/ha)?
Answer: 5.0

Question: What about the “Herbicidal rating CYPIR” value (CYPIR (Rice Flatsedge); Rate 0.5000 kg/ha) of the same compound?
Answer: 7.0

Question: What about the ABUTH herbicidal rating (ABUTH (Velvetleaf) [4]; rate 0.0156 kg/ha) of the same compound?
Answer: 2.0

Question: What about the ABUTH herbicidal rating (ABUTH (Velvetleaf) [4]; rate 0.0313 kg/ha) of the same compound?
Answer: 4.0

Question: What about the ABUTH herbicidal rating (ABUTH (Velvetleaf) [4]; rate 0.0625 kg/ha) of the same compound?
Answer: 9.0

Question: And the ABUTH herbicidal rating (ABUTH (Velvetleaf) [4]; rate 0.1250 kg/ha)?
Answer: 9.0

Question: And the ABUTH herbicidal rating (ABUTH (Velvetleaf) [4]; rate 0.2500 kg/ha)?
Answer: 9.0

Question: And the GLXMAW herbicidal rating ([5]; rate 0.0156 kg/ha)?
Answer: 4.5

Question: What about the GLXMAW herbicidal rating ([5]; rate 0.0313 kg/ha) of the same compound?
Answer: 5.5

Question: And the GLXMAW herbicidal rating ([5]; rate 0.0625 kg/ha)?
Answer: 7.5

Question: And the GLXMAW herbicidal rating ([5]; rate 0.1250 kg/ha)?
Answer: 8.0

Question: What about the GLXMAW herbicidal rating ([5]; rate 0.2500 kg/ha) of the same compound?
Answer: 9.0

Question: What about the ORYSAT herbicidal rating (ORYSAT (Rice, Tebonnet); rate 0.0156 kg/ha) of the same compound?
Answer: 0.0

Question: And the ORYSAT herbicidal rating (ORYSAT (Rice, Tebonnet); rate 0.0313 kg/ha)?
Answer: 0.5

Question: And the ORYSAT herbicidal rating (ORYSAT (Rice, Tebonnet); rate 0.0625 kg/ha)?
Answer: 1.0

Question: And the ORYSAT herbicidal rating (ORYSAT (Rice, Tebonnet); rate 0.1250 kg/ha)?
Answer: 1.5

Question: And the ORYSAT herbicidal rating (ORYSAT (Rice, Tebonnet); rate 0.2500 kg/ha)?
Answer: 4.0

Question: And the “Herbicidal rating SAGPY” value ([6]; Rate 0.0313 kg/ha)?
Answer: 0.0

Question: What about the “Herbicidal rating SAGPY” value ([6]; Rate 0.0625 kg/ha) of the same compound?
Answer: 4.0

Question: What about the “Herbicidal rating SAGPY” value ([6]; Rate 0.1250 kg/ha) of the same compound?
Answer: 4.0

Question: What about the “Herbicidal rating SAGPY” value ([6]; Rate 0.2500 kg/ha) of the same compound?
Answer: 5.0

Question: And the “Herbicidal rating SAGPY” value ([6]; Rate 0.5000 kg/ha)?
Answer: 7.0

Question: What about the ECHCG herbicidal rating (ECHCG (Barnyardgrass); rate 0.0156 kg/ha) of the same compound?
Answer: 0.0

Question: What about the ECHCG herbicidal rating (ECHCG (Barnyardgrass); rate 0.0313 kg/ha) of the same compound?
Answer: 0.0

Question: What about the ECHCG herbicidal rating (ECHCG (Barnyardgrass); rate 0.0625 kg/ha) of the same compound?
Answer: 2.0

Question: What about the ECHCG herbicidal rating (ECHCG (Barnyardgrass); rate 0.1250 kg/ha) of the same compound?
Answer: 9.0

Question: And the ECHCG herbicidal rating (ECHCG (Barnyardgrass); rate 0.2500 kg/ha)?
Answer: 9.0

Question: And the AMBEL herbicidal rating (AMBEL (Ragweed, Common); rate 0.0156 kg/ha)?
Answer: 0.0

Question: What about the AMBEL herbicidal rating (AMBEL (Ragweed, Common); rate 0.0313 kg/ha) of the same compound?
Answer: 4.0

Question: And the AMBEL herbicidal rating (AMBEL (Ragweed, Common); rate 0.0625 kg/ha)?
Answer: 7.0

Question: And the AMBEL herbicidal rating (AMBEL (Ragweed, Common); rate 0.1250 kg/ha)?
Answer: 9.0

Question: And the AMBEL herbicidal rating (AMBEL (Ragweed, Common); rate 0.2500 kg/ha)?
Answer: 9.0

Question: What about the SETVI herbicidal rating (SETVI (Foxtail, Green) [7]; rate 0.0156 kg/ha) of the same compound?
Answer: 0.0

Question: What about the SETVI herbicidal rating (SETVI (Foxtail, Green) [7]; rate 0.0313 kg/ha) of the same compound?
Answer: 0.0

Question: And the SETVI herbicidal rating (SETVI (Foxtail, Green) [7]; rate 0.0625 kg/ha)?
Answer: 2.0

Question: What about the SETVI herbicidal rating (SETVI (Foxtail, Green) [7]; rate 0.1250 kg/ha) of the same compound?
Answer: 7.0

Question: What about the SETVI herbicidal rating (SETVI (Foxtail, Green) [7]; rate 0.2500 kg/ha) of the same compound?
Answer: 7.0

Question: What about the “MOOVA herbicidal effect rating” value (MOOVA (Monochoria); 0.0313 kg/ha) of the same compound?
Answer: 9.0

Question: And the “MOOVA herbicidal effect rating” value (MOOVA (Monochoria); 0.0625 kg/ha)?
Answer: 9.0

Question: What about the “MOOVA herbicidal effect rating” value (MOOVA (Monochoria); 0.1250 kg/ha) of the same compound?
Answer: 9.0

Question: What about the “MOOVA herbicidal effect rating” value (MOOVA (Monochoria); 0.2500 kg/ha) of the same compound?
Answer: 9.0

Question: What about the “MOOVA herbicidal effect rating” value (MOOVA (Monochoria); 0.5000 kg/ha) of the same compound?
Answer: 9.0

Question: What about the SETVI rating (SETVI (Foxtail, Green) [8]; 0.1250 kg/ha) of the same compound?
Answer: 0.0

Question: And the SETVI rating (SETVI (Foxtail, Green) [8]; 0.2500 kg/ha)?
Answer: 0.0

Question: And the SETVI rating (SETVI (Foxtail, Green) [8]; 0.5000 kg/ha)?
Answer: 9.0
